ChEMBL document CHEMBL4321825, “Discovery of a Series of 5-Azaquinazolines as Orally Efficacious IRAK4 Inhibitors Targeting MyD88L265P Mutant Diffuse Large B Cell Lymphoma” (J Med Chem, 2019)
In brackets after ≈: the same amount, converted by molar mass. Activity calls are given as the source filed them. The calls are words filed in the database; no cut-off is given here.

Assays:
OCI-Ly10 [1] = test: Growth inhibition of human OCI-LY10 cells at 1.7 uM incubated for 3 days by Alamar blue dye based fluorescence assay (reference value: 3%); type: functional; conditions: OCI-Ly10, 72 h, read-out: GI
[2] = molecular target: Dual specificity protein kinase CLK1 (Homo sapiens, UniProt P49759); test: Inhibition of human recombinant CLK1 expressed in Escherichia coli
Homo sapiens [3] = organism: Homo sapiens; test: Selectivity index, ratio of IC50 for inhibition of human recombinant CLK3 expressed in Baculovirus system to IC50 for inhibition of IRAK4 (unknown origin) in presence of 5 mM ATP by enzymatic assay
OCI-LY19 [4] = test: Growth inhibition of human OCI-LY19 cells at 1.7 uM incubated for 3 days by Alamar blue dye based fluorescence assay (reference value: 3%); type: functional; conditions: OCI-LY19, 72 h, read-out: GI
[5] = molecular target: T1, Interleukin-1 receptor-associated kinase 4 (Homo sapiens) (UniProt Q9NWZ3); test: Inhibition of IRAK4 in human OCI-LY10 cells assessed as decrease in pIKBalpha levels at 0.3 uM in presence of 3 nM ibrutinib incubated for 14 hrs by Western blotting analysis relative to control; type: cell-based
T1 sequence (whole entry): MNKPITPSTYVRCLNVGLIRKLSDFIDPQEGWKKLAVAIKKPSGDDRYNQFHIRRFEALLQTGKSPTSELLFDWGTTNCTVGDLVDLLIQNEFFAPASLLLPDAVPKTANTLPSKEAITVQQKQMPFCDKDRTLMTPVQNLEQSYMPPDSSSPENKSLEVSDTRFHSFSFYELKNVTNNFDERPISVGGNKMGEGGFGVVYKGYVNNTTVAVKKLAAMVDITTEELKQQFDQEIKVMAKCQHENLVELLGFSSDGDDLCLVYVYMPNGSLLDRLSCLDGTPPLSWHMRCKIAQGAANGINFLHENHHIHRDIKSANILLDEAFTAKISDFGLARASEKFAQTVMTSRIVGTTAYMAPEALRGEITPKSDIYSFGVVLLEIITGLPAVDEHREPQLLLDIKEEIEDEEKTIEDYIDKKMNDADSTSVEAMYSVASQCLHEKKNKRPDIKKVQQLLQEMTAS

[6] = molecular target: Cyclin-dependent kinase 9 (Homo sapiens, UniProt P50750); test: Inhibition of CDK9 (unknown origin)
[7] = molecular target: Dual specificity protein kinase CLK4 (Homo sapiens, UniProt Q9HAZ1); test: Inhibition of human recombinant CLK4 expressed in Baculovirus system
Homo sapiens [8] = organism: Homo sapiens; test: Selectivity index, ratio of IC50 for inhibition of CDK9 (unknown origin) to IC50 for inhibition of IRAK4 (unknown origin) in presence of 5 mM ATP by enzymatic assay
OCI-LY19 [9] = test: Growth inhibition of human OCI-LY19 cells at 3.3 uM incubated for 3 days by Alamar blue dye based fluorescence assay (reference value: 3%); type: functional; conditions: OCI-LY19, 72 h, read-out: GI
[10] = Efflux ratio in human Caco2 cells; type: ADME, cell-based; conditions: Caco-2
OCI-LY19 [11] = test: Growth inhibition of human OCI-LY19 cells at 0.33 uM incubated for 3 days by Alamar blue dye based fluorescence assay (reference value: 3%); type: functional; conditions: OCI-LY19, 72 h, read-out: GI
[12] = Unbound fraction in mouse plasma at 37 degC by equilibrium dialysis; type: ADME, cell-free
[13] = Unbound fraction in human plasma at 37 degC by equilibrium dialysis; type: ADME, cell-free
OCI-Ly10 [14] = test: Growth inhibition of human OCI-LY10 cells at 0.13 uM incubated for 3 days by Alamar blue dye based fluorescence assay (reference value: 3%); type: functional; conditions: OCI-Ly10, 72 h, read-out: GI
[15] = Volume of distribution at steady state in Han Wistar rat at 1 mg/kg, iv; type: ADME, organism-based; conditions: in vivo, read-out: Vdss
[16] = molecular target: T2, Interleukin-1 receptor-associated kinase 4 (Homo sapiens, UniProt Q9NWZ3); test: Inhibition of IRAK4 (unknown origin) in presence of 5 mM ATP by enzymatic assay
T2 sequence (Q9NWZ3 whole entry): T1 sequence (whole entry)

Homo sapiens [17] = organism: Homo sapiens; test: Selectivity index, ratio of IC50 for inhibition of human recombinant CLK4 expressed in Baculovirus system to IC50 for inhibition of IRAK4 (unknown origin) in presence of 5 mM ATP by enzymatic assay
[18] = Intrinsic clearance in rat hepatocytes assessed per million cells; type: ADME, cell-based, Hepatocyte; conditions: read-out: CLH
OCI-Ly10 [19] = test: Antitumor activity against human OCI-LY10 cells xenografted in CB.17 SCID mouse assessed as induction of tumor regression at 100 mg/kg, po QD dosed 34 days after tumor cell inoculation and co-treated with 12 mg/kg, po QD ibrutinib; type: functional, organism-based
[20] = AUC in SCID mouse at 50 mg/kg, po; type: ADME, organism-based; conditions: in vivo
OCI-LY19 [21] = test: Growth inhibition of human OCI-LY19 cells at 10 uM incubated for 3 days by Alamar blue dye based fluorescence assay (reference value: 3%); type: functional; conditions: OCI-LY19, 72 h, read-out: GI
OCI-Ly10 [22] = test: Antitumor activity against human OCI-LY10 cells xenografted in CB.17 SCID mouse assessed as inhibition of tumor growth at 100 mg/kg, po QD dosed 34 days after tumor cell inoculation; type: functional, organism-based
[23] = molecular target: Dual specificity protein kinase CLK3 (Homo sapiens, UniProt P49761); test: Inhibition of human recombinant CLK3 expressed in Baculovirus system
Homo sapiens [24] = organism: Homo sapiens; test: Selectivity index, ratio of IC50 for inhibition of human recombinant CLK2 expressed in Baculovirus system to IC50 for inhibition of IRAK4 (unknown origin) in presence of 5 mM ATP by enzymatic assay
[25] = molecular target: T3, Interleukin-1 receptor-associated kinase 1 (Homo sapiens, UniProt P51617); test: Inhibition of IRAK1 (unknown origin)
Target sequence in this assay (P51617 whole entry): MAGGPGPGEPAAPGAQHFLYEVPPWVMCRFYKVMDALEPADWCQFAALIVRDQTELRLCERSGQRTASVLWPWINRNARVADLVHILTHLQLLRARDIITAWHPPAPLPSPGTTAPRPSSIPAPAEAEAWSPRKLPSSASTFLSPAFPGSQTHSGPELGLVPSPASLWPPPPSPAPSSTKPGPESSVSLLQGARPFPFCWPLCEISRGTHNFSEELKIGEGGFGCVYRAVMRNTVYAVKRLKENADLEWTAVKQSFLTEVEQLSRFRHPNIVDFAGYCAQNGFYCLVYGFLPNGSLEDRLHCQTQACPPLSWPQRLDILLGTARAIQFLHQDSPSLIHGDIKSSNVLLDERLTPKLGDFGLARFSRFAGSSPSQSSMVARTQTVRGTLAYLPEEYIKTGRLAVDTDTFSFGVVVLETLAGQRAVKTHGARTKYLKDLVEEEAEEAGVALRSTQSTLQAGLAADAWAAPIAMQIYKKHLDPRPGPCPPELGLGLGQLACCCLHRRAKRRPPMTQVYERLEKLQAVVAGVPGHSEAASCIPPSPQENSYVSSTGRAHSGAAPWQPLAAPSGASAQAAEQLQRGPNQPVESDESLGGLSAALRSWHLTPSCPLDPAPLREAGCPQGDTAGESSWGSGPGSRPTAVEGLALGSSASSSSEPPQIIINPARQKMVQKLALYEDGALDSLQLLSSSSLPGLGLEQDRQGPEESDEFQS

[26] = Plasma clearance in Han Wistar rat at 1 mg/kg, iv; type: ADME, organism-based
Homo sapiens [27] = organism: Homo sapiens; test: Selectivity index, ratio of IC50 for inhibition of human recombinant CLK1 expressed in Escherichia coli to IC50 for inhibition of IRAK4 (unknown origin) in presence of 5 mM ATP by enzymatic assay
[28] = Aqueous solubility in pH 7.4 phosphate buffer; type: physicochemical
[29] = Intrinsic clearance in human hepatocytes assessed per million cells; type: ADME, cell-based, Hepatocyte; conditions: read-out: CLH
[30] = Lipophilicity, logD of the compound at pH 7.4 by shake-flask assay; type: physicochemical; conditions: buffer
[31] = molecular target: T2, Interleukin-1 receptor-associated kinase 4; test: Inhibition of IRAK4 (unknown origin) by cell based assay
[32] = Unbound fraction in rat plasma at 37 degC by equilibrium dialysis; type: ADME, cell-free
[33] = molecular target: Dual specificity protein kinase CLK2 (Homo sapiens, UniProt P49760); test: Inhibition of human recombinant CLK2 expressed in Baculovirus system
[34] = Oral bioavailability in Han Wistar rat at 2 mg/kg; type: ADME, organism-based; conditions: in vivo
Homo sapiens [35] = organism: Homo sapiens; test: Selectivity index, ratio of IC50 for inhibition of CDK7 (unknown origin) to IC50 for inhibition of IRAK4 (unknown origin) in presence of 5 mM ATP by enzymatic assay
OCI-Ly10 [36] = test: Growth inhibition of human OCI-LY10 cells at 10 uM incubated for 3 days by Alamar blue dye based fluorescence assay (reference value: 3%); type: functional; conditions: OCI-Ly10, 72 h, read-out: GI
Homo sapiens [37] = organism: Homo sapiens; test: Selectivity index, ratio of IC50 for inhibition of IRAK1 (unknown origin) to IC50 for inhibition of IRAK4 (unknown origin) in presence of 5 mM ATP by enzymatic assay
Homo sapiens [38] = organism: Homo sapiens; test: Selectivity index, ratio of IC50 for inhibition of human recombinant CDK8/cyclinC expressed in Baculovirus system to IC50 for inhibition of IRAK4 (unknown origin) in presence of 5 mM ATP by enzymatic assay
[39] = molecular target: T1, Interleukin-1 receptor-associated kinase 4 (Homo sapiens); test: Inhibition of IRAK4 (unknown origin) at 0.1 uM relative to control
OCI-LY19 [40] = test: Growth inhibition of human OCI-LY19 cells at 0.13 uM incubated for 3 days by Alamar blue dye based fluorescence assay (reference value: 3%); type: functional; conditions: OCI-LY19, 72 h, read-out: GI
OCI-Ly10 [41] = test: Growth inhibition of human OCI-LY10 cells at 0.33 uM incubated for 3 days by Alamar blue dye based fluorescence assay (reference value: 3%); type: functional; conditions: OCI-Ly10, 72 h, read-out: GI
OCI-Ly10 [42] = test: Growth inhibition of human OCI-LY10 cells at 3.3 uM incubated for 3 days by Alamar blue dye based fluorescence assay (reference value: 3%); type: functional; conditions: OCI-Ly10, 72 h, read-out: GI
[43] = Intrinsic permeability in human Caco2 cells; type: ADME, cell-based; conditions: Caco-2
[44] = molecular target: T3, Interleukin-1 receptor-associated kinase 1; test: Inhibition of IRAK1 (unknown origin) at 0.1 uM relative to control
Target sequence in this assay (P51617 whole entry, looked up): as the sequence (P51617 whole entry) above

[45] = molecular target: Cyclin-dependent kinase 7 (Homo sapiens, UniProt P50613); test: Inhibition of CDK7 (unknown origin)
CDK8/Cyclin C = CDK8/Cyclin C (Homo sapiens, UniProt P49336); test: Inhibition of human recombinant CDK8/cyclinC expressed in Baculovirus system
Chain of CDK8/Cyclin C (P49336 whole entry): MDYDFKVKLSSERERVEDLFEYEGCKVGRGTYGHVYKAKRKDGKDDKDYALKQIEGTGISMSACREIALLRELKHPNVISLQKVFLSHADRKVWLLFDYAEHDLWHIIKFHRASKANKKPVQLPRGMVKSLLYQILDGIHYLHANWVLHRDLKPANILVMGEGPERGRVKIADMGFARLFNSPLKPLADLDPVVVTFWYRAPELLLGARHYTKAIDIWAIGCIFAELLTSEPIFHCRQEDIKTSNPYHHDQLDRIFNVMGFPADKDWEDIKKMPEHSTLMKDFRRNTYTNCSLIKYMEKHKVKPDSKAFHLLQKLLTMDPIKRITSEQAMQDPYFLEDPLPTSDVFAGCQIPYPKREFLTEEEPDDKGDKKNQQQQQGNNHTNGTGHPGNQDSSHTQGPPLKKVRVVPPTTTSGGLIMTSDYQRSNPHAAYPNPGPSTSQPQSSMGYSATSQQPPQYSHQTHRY
Chain of CDK8/Cyclin C (P24863 whole entry, further chain): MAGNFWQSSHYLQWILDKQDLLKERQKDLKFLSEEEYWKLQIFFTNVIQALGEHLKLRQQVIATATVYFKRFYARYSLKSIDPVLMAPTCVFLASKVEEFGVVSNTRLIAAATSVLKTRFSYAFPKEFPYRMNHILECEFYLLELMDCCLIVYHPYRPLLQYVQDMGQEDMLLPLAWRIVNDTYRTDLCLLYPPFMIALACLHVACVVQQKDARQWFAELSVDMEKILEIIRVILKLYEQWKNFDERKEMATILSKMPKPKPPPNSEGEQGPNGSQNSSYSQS

Chain of Dual specificity protein kinase CLK4 (Q9HAZ1 whole entry): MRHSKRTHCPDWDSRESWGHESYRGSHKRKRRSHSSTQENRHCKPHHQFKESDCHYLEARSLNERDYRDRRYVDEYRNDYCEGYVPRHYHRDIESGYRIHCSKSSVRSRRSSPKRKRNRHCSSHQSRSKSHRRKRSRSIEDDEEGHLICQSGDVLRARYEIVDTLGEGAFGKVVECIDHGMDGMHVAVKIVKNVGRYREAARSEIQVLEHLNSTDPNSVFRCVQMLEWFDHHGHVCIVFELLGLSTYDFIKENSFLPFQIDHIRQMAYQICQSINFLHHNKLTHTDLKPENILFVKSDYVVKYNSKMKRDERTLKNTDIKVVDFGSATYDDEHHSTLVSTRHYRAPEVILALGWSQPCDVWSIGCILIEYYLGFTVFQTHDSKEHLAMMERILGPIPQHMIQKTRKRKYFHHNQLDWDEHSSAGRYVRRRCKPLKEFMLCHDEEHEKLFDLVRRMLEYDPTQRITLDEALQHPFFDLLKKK
Chain of Dual specificity protein kinase CLK1 (P49759 whole entry): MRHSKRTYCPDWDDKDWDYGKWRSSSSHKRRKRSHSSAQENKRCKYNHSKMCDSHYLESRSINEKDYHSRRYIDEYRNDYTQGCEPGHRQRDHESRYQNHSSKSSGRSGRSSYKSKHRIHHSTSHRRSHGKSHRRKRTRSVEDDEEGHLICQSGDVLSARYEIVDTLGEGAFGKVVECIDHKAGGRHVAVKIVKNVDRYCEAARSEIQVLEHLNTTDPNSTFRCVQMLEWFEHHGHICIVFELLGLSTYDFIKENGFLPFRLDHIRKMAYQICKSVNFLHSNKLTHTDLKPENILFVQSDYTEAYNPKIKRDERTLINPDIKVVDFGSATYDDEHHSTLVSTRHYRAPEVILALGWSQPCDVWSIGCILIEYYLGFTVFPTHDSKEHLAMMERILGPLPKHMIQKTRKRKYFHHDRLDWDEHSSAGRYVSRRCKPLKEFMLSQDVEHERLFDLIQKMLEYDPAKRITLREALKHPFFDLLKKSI
Chain of Dual specificity protein kinase CLK3 (P49761 whole entry): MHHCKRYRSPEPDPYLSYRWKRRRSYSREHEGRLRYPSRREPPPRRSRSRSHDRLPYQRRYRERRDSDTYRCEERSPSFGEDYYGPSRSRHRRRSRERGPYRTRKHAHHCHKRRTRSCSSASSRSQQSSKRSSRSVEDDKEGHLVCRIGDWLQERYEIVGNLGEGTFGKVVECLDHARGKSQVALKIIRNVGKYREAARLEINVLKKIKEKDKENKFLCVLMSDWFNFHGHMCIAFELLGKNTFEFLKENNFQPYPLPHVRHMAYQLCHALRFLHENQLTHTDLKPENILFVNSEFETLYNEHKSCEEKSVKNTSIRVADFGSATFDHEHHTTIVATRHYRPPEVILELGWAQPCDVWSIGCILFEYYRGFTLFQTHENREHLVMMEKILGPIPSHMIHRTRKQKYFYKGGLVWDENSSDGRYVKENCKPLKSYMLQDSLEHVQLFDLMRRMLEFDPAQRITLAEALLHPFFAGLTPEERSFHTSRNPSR
Chain of Cyclin-dependent kinase 7 (P50613 whole entry): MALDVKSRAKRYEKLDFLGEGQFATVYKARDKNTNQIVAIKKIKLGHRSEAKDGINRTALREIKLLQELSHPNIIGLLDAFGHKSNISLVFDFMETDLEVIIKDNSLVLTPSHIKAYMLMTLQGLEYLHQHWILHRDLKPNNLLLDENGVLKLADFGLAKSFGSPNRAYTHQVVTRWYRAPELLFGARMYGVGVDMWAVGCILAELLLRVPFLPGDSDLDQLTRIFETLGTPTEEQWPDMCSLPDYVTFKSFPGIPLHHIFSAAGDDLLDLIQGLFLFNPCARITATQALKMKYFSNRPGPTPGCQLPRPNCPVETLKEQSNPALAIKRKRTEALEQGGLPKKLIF
Chain of Cyclin-dependent kinase 9 (P50750 whole entry): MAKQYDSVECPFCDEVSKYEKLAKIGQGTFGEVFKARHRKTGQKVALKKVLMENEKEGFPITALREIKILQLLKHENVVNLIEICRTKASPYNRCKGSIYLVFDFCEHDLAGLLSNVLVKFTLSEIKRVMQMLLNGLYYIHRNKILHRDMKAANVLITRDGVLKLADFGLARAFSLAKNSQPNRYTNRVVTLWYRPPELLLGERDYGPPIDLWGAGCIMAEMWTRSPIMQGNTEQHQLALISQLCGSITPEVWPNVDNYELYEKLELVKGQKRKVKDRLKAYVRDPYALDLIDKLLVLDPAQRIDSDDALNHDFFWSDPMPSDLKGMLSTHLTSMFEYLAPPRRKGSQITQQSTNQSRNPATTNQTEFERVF
Chain of Dual specificity protein kinase CLK2 (P49760 whole entry): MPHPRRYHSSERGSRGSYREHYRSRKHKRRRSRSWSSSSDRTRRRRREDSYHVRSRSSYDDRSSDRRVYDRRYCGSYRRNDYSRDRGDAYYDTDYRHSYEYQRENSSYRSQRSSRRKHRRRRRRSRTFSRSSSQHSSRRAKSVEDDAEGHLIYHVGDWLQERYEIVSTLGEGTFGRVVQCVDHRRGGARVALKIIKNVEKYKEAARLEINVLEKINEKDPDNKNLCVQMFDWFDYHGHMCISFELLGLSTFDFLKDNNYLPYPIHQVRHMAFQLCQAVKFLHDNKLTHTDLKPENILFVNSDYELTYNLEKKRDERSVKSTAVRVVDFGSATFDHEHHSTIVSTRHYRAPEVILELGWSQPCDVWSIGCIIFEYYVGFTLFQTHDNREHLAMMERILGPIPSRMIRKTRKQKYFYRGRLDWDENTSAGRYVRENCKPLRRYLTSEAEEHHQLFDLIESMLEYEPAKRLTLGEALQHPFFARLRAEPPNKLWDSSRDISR

COC(=O)N1CCN([C@H]2CC[C@H](Nc3nc(Nc4cnn(C)c4)nc4ccc(CC#N)nc34)CC2)CC1
inhibition of growth at 1.7 µM (OCI-Ly10 [1]): 25%
IC50 [2]: 3100 nM
Ratio IC50 (Homo sapiens [3]): > 2500
inhibition of growth at 1.7 µM (OCI-LY19 [4]): 31%
inhibition [5]: 100%
IC50 [6]: 13000 nM
IC50 [7]: 1000 nM
Ratio IC50 (Homo sapiens [8]): 3250
inhibition of growth at 3.3 µM (OCI-LY19 [9]): 50%
efflux ratio [10]: 24
inhibition of growth at 0.33 µM (OCI-LY19 [11]): 10%
fraction unbound [12]: 0.44
fraction unbound [13]: 0.3
inhibition of growth at 0.13 µM (OCI-Ly10 [14]): 8%
Vd [15]: 4.5 L/kg
IC50 [16]: 4 nM
Ratio IC50 (Homo sapiens [17]): 250
hepatocyte CLint [18]: 10 µL/min/1e6 cells
Activity (OCI-Ly10 [19]): Active
AUC [20]: 23 µM·h
inhibition of growth at 10 µM (OCI-LY19 [21]): 88%
TGI (OCI-Ly10 [22]): Active
IC50 [23]: > 10000 nM
Ratio IC50 (Homo sapiens [24]): 350
IC50 [25]: 27 nM
clearance [26]: 25 mL/min/kg
Ratio IC50 (Homo sapiens [27]): 775
solubility [28]: 29 µM (≈ 14.6 µg/mL)
hepatocyte CLint [29]: 10 µL/min/1e6 cells
logD [30]: 2.3
IC50 [31]: 46 nM
fraction unbound [32]: 0.23
IC50 [33]: 1400 nM
bioavailability [34]: 10%
Ratio IC50 (Homo sapiens [35]): 4250
inhibition of growth at 10 µM (OCI-Ly10 [36]): 82%
Ratio IC50 (Homo sapiens [37]): 6.8
Ratio IC50 (Homo sapiens [38]): > 2500
inhibition [39]: 104%
inhibition of growth at 0.13 µM (OCI-LY19 [40]): 6%
inhibition of growth at 0.33 µM (OCI-Ly10 [41]): 12%
inhibition of growth at 3.3 µM (OCI-Ly10 [42]): 44%
Papp [43]: 9.3 ×10⁻⁶ cm/s
inhibition [44]: 70%
IC50 [45]: 17000 nM
IC50 (CDK8/Cyclin C): > 10000 nM
